Patent US9695168B2 (Incyte Corporation, priority 2014, dated 2017)
pIC50: −log10 of the molar value.

Molecular target: LSD1 (Homo sapiens (Human), UniProt O60341)
Assay: LSD1 Histone Demethylase Biochemical Assay (LANCE LSD1/KDM1A demethylase assay)
Conditions: 1 nM LSD-1 enzyme, 1 hour preincubation at 25° C., 0.4 μM Biotin-labeled Histone H3 peptide substrate
Procedure: LSD1 Histone Demethylase Biochemical Assay
LANCE LSD1/KDM1A demethylase assay-10 μL of 1 nM LSD-1 enzyme (ENZO BML-SE544-0050) in the assay buffer (50 mM Tris, pH 7.5, 0.01% Tween-20, 25 mM NaCl, 5 mM DTT) were preincubated for 1 hour at 25° C. with 0.8 μL compound/DMSO dotted in black 384 well polystyrene plates. […] Reactions were stopped by addition of 10 μL 1× LANCE Detection Buffer (PerkinElmer CR97-100) supplemented with 1.5 nM Eu-anti-unmodified H3K4 Antibody (PerkinElmer TRF0404), and 225 nM LANCE Ultra Streptavidin (PerkinElmer TRF102) along with 0.9 mM Tranylcypromine-HCl (Millipore 616431). After stopping the reactions plates were incubated for 30 minutes and read on a PHERAstar FS plate reader (BMG Labtech).

Row | SMILES | pIC50
1 | Cc1ccc(-c2c(-c3ccc(F)cc3)cc(OC[C@@H]3CCNC3)c3cncn23)cc1 [Example 2, 6-(4-fluorophenyl)-5-(4-methylphenyl)-8-[(3R)-pyrrolidin-3-ylmethoxy]imidazo[1,5-a]pyridine] | 6.00 to 6.30
2 | N#Cc1ccc(-c2cc(OC[C@@H]3CCNC3)c3cncn3c2-c2ccc(Cl)cc2)cc1 [Example 6, 4-{5-(4-chlorophenyl)-8-[(3R)-pyrrolidin-3-ylmethoxy]imidazo[1,5-a]pyridin-6-yl}benzonitrile] | 7.00 to 7.30
3 | N#Cc1ccc(-c2cc(OC[C@@H]3CCNC3)c3cncn3c2-c2cnn(C3CCC3)c2)cc1 [Example 7, 4-{5-(1-cyclobutyl-1H-pyrazol-4-yl)-8-[(3R)-pyrrolidin-3-ylmethoxy]imidazo[1,5-a]pyridin-6-yl}benzonitrile] | 7.00 to 7.30
4 | CC(C)(C)OC(=O)N1CC=C(c2c(-c3ccc(C#N)cc3)cc(OC[C@@H]3CCNC3)c3cncn23)CC1 [Example 10, tert-butyl 4-{6-(4-cyanophenyl)-8-[(3R)-pyrrolidin-3-ylmethoxy]imidazo[1,5-a]pyridin-5-yl}-3,6-dihydropyridine-1(2H)-carboxylate] | 6.30 to 7.00
5 | N#Cc1ccc(-c2cc(OC[C@@H]3CCNC3)c3cncn3c2-c2ccc(N3CCOCC3)cc2)cc1 [Example 13, 4-{5-(4-morpholin-4-ylphenyl)-8-[(3R)-pyrrolidin-3-ylmethoxy]imidazo[1,5-a]pyridin-6-yl}benzonitrile] | 7.00 to 7.30
6 | N#Cc1ccc(-c2cc(OC[C@@H]3CCNC3)c3cncn3c2-c2ccc(CN3CCOCC3)cc2)cc1 [Example 17, 4-{5-[4-(morpholin-4-ylmethyl)phenyl]-8-[(3R)-pyrrolidin-3-ylmethoxy]imidazo[1,5-a]pyridin-6-yl}benzonitrile] | 7.00 to 7.30
7 | CN1CCC[C@@H](COc2nc(-c3ccc(C#N)cc3)c(-c3ccc4c(c3)oc(=O)n4C)n3cncc23)C1 [Example 21, 4-(5-(3-methyl-2-oxo-2,3-dihydro-1,3-benzoxazol-6-yl)-8-{[(3R)-1-methylpiperidin-3-yl]methoxy}imidazo[1,5-a]pyrazin-6-yl)benzonitrile] | 7.00 to 7.30
8 | CN1CCC[C@@H](COc2nc(-c3ccc(C#N)cc3)c(-c3ccc4c(c3)CC(=O)N4C)n3cncc23)C1 [Example 22, 4-(5-(1-methyl-2-oxo-2,3-dihydro-1H-indol-5-yl)-8-{[(3R)-1-methylpiperidin-3-yl]methoxy}imidazo[1,5-a]pyrazin-6-yl)benzonitrile] | 6.30 to 7.00
9 | CN1CCC[C@@H](COc2nc(-c3ccc(C#N)cc3)c(-c3ccc4c(c3)CCC(=O)N4C)n3cncc23)C1 [Example 24, 4-(5-(1-methyl-2-oxo-1,2,3,4-tetrahydroquinolin-6-yl)-8-{[(3R)-1-methylpiperidin-3-yl]methoxy}imidazo[1,5-a]pyrazin-6-yl)benzonitrile] | 6.30 to 7.00
10 | CN1CCC[C@@H](COc2nc(-c3ccc(C#N)cc3)c(-c3ccc4c(c3)OCC(=O)N4C)n3cncc23)C1 [Example 25, 4-(5-(4-methyl-3-oxo-3,4-dihydro-2H-1,4-benzoxazin-7-yl)-8-{[(3R)-1-methylpiperidin-3-yl]methoxy}imidazo[1,5-a]pyrazin-6-yl)benzonitrile] | 7.00 to 7.30
11 | CN1CCC[C@@H](COc2nc(-c3ccc(C#N)cc3)c(-c3ccc4c(c3)n(C)c(=O)n4C)n3cncc23)C1 [Example 26, 4-(5-(1,3-dimethyl-2-oxo-2,3-dihydro-1H-benzimidazol-5-yl)-8-{[(3R)-1-methylpiperidin-3-yl]methoxy}imidazo[1,5-a]pyrazin-6-yl)benzonitrile] | 6.30 to 7.00
12 | CN1CCC[C@@H](COc2nc(-c3ccc(C#N)cc3)c(-c3cnc4c(cnn4C)c3)n3cncc23)C1 [Example 27, 4-[8-{[(3R)-1-methylpiperidin-3-yl]methoxy}-5-(1-methyl-1H-pyrazolo[3,4-b]pyridin-5-yl)imidazo[1,5-a]pyrazin-6-yl]benzonitrile] | 7.00 to 7.30
